# Measurements from patent publication US20010000177A1, “Novel class of thiomorpholino substituted thiazoles” (priority 1999, published 2001).
# Tests used:
# Candida albican = conditions: Antimicrob. Agents Chemother., (1980), 18(2), 231-9; cited from earlier work
# [1] = system: Candida and Cryptococcus strains (organism not given); assay: Broth microdilution antifungal activity, Table II first MIC/MCC column pair; format: cell-based; conditions: first column pair of Table II
# Description: (§1) Organisms: Three strains of Candida (Candida parpsilosis, Candida tropicalis, Candida albicans-ATCC 36082) as well as Cryptococcus neoformans were used for the initial testing. […] All clinical strains used in this study were blood culture isolates from the Clinical Microbiology Laboratory of Harbor-UCLA Medical Center, Torrance, Calif. The organisms were maintained on Sabourahd Dextrose Agar slants at 4° C. For experimentation, singlet suspensions of each organism were prepared by growing the yeast overnight at 27° C. on a rotating drum in yeast-nitrogen base broth (YNB) with amino acids (Difco, Detroit, Mich.), pH 7.0 with 0.05M morpholinepropanesulfonic acid (MOPS). The suspension was then centrifuged and washed twice with 0.85% NaCl. This was followed by sonication of the washed cell suspension for 4s (Branson Sonifier, model 350, Danbury, Conn.). The singlet blastospores were counted in a hemocytometer and adjusted to the desired concentration in 0.85% NaCl.
# (§2) Antifungal Activity: The antifungal activity of the compounds and Fluconazole against the Candida and Cryptococcus strains were determined using a modification of a broth microdilution technique. Test compounds were diluted in DMSO to a 1.0 mg/ml ratio then diluted to 64 μg/ml in YNB broth, pH 7.0 with MOPS (Fluconazole was used as the control). This was to provide a working solution of each compound. Using a 96-well plate, wells 1 and 3 through 12 were prepared with YNB broth, […] dilutions of the compound solution were made in wells 2 through 11 (concentration ranges were 64 to 0.125 μg/ml). Well one served as a sterility control and blank for the spectrophotometric assays. Well twelve served as a growth control. The microtiter plates were inoculated with 10 ul in each of well 2 through 11 (final inoculum size was 10^4 organisms/ml). Inoculated plates were incubated for 48 hrs., at 35° C. The MIC values were determined spectrophotometrically by measuring the absorbance at 420 nm (Automatic Microplate Reader, DuPont Instruments, Wilmington, Del.) after agitation of the plates for 2 min with a vortex-mixer (Vorte-Genie 2 Mixer, Scientific Industries, Inc., Bolemia, N.Y.). […] With the turbidity assay this was defined as the lowest drug concentration at which turbidity in the well was <50% of the control (IC50) Minimal Cytolytic Concentrations (MCC) were determined by subculturing all wells from the 96-well plate onto a Sabourahd Dextrose Agar (SDA) plate and incubated for 1 to 2 days at 35° C. and the viability was checked.
# [2] = system: Candida and Cryptococcus strains (organism not given); assay: Broth microdilution antifungal activity, Table II third MIC/MCC column pair; format: cell-based
# Description: (§3) Organisms: Three strains of Candida (Candida parpsilosis, Candida tropicalis, Candida albicans-ATCC 36082) as well as Cryptococcus neoformans were used for the initial testing. Active compounds were then tested against fluconazole resistant Candida albicans, Candida krusei, Torulopsis glabrata, and Cryptococcus neoformans along with Sporothrix shenkii and Aspergillus flavus in the secondary round of testing. All clinical strains used in this study were blood culture isolates from the Clinical Microbiology Laboratory of Harbor-UCLA Medical Center, Torrance, Calif. The organisms were maintained on Sabourahd Dextrose Agar slants at 4° C. For experimentation, singlet suspensions of each organism were prepared by growing the yeast overnight at 27° C. on a rotating drum in yeast-nitrogen base broth (YNB) with amino acids (Difco, Detroit, Mich.), pH 7.0 with 0.05M morpholinepropanesulfonic acid (MOPS). The suspension was then centrifuged and washed twice with 0.85% NaCl. This was followed by sonication of the washed cell suspension for 4s (Branson Sonifier, model 350, Danbury, Conn.). The singlet blastospores were counted in a hemocytometer and adjusted to the desired concentration in 0.85% NaCl.
# as §2
# [3] = system: Candida and Cryptococcus strains (organism not given); assay: Broth microdilution antifungal activity, Table II fourth MIC/MCC column pair; format: cell-based; conditions: fourth column pair of Table II
# Description: as §1, §2
# [4] = system: Candida and Cryptococcus strains (organism not given); assay: Broth microdilution antifungal activity, Table II second MIC/MCC column pair; format: cell-based; conditions: second column pair of Table II
# Description: as §3, §2
# [5] = 48 hrs, 35° C., YNB broth pH 7.0
"MIC = Minimum inhibitory concentration (50% Inhibition) [1, 5]","MIC = Minimum inhibitory concentration (50% Inhibition) [2, 5]","MIC = Minimum inhibitory concentration (50% Inhibition) [3, 5]","MIC = Minimum inhibitory concentration (50% Inhibition) [4, 5]",SMILES,MIC50 (Candida albican),MCC = Minimum cytolytic concentration ([1]; subculture on SDA plate),MCC = Minimum cytolytic concentration ([2]; subculture on SDA plate),MCC = Minimum cytolytic concentration ([3]; subculture on SDA plate),MCC = Minimum cytolytic concentration ([4]; subculture on SDA plate)
–,–,–,–,N=C(N)c1ccc(-c2nnc(-c3ccc(C(=N)N)cc3)o2)cc1,> 60 µg/mL,–,–,–,–
0.5 µg/mL,0.25 µg/mL,0.25 µg/mL,0.25 µg/mL,"COc1ccc(-c2nc(-c3ccc(CN(C)C)cc3)cs2)cc1[N+](=O)[O-] [Example 6l, 2-(4′-methoxy-3′-nitrophenyl)-4-[4″-(dimethylaminomethyl)phenyl]thiazole]",–,1 µg/mL,1 µg/mL,0.5 µg/mL,0.5 µg/mL
